# Reference: article PMC12332157, “A preclinical study on the influence of linkers in [^68Ga]Ga-NOTA-X-RM26 radiotracers for PET imaging of GRPR expression” (EJNMMI Research, 2025)
# Starred links: 1 amine or outer side, 2 acyl side, 3 side chain; linkers in the order of their positions; H or OH if unused. Non-standard residues stand in square brackets, D forms with d. Residues, ends and D or L forms follow the SMILES beside them. *: point of attachment. NOTA = O=C(O)CN1CCN(CC(=O)O)CCN(CC(=O)*)CC1; Sta = CC(C)C[C@H](N)[C@@H](O)CC(=O)O; X2 = O=C(COc1cccc(CN[*:1])c1)[*:2]
# System: PC-3 xenografts
# Assay: PET/CT imaging of mice bearing PC-3 xenografts
# Assay type: in vivo
# Conditions: 2 h post injection, 100 pmol i.v.
# Experimental: For PET/CT imaging, animals bearing PC-3 xenografts were used. The animals received a single intravenous injection of the corresponding ^68Ga-radiolabeled peptide (100 pmol, 1.2 MBq) and 2 h post injection they were euthanized using CO2. For image acquisition, Nano PET 3T (PET/MRI) and nanoScan (SPECT/CT) (Mediso Medical Imaging Systems, Budapest, Hungary) tomographs were used. Reconstruction of the PET scans was conducted using Nucline nanoScan 3.04.014.0000 software. CT data were reconstructed using Filter Back Projection in Nucline 2.03 Software (Mediso Medical Imaging Systems Ltd., Budapest, Hungary). For their fusion, Nucline 2.03 Software was used, and PET images are presented as maximum intensity projections (MIP) with an equivalent color scale.
smiles,measurement,value
CC(=O)N[C@@H](CCCCNC(=O)CN1CCN(CC(=O)O)CCN(CC(=O)O)CC1)C(=O)NCc1cccc(OCC(=O)N[C@H](Cc2ccccc2)C(=O)N[C@@H](CCC(N)=O)C(=O)N[C@@H](Cc2c[nH]c3ccccc23)C(=O)N[C@@H](C)C(=O)N[C@H](C(=O)NCC(=O)N[C@@H](Cc2c[nH]cn2)C(=O)N[C@@H](CC(C)C)[C@@H](O)CC(=O)N[C@@H](CC(C)C)C(N)=O)C(C)C)c1 [NOTA-mMA-RM26] (Ac-K(NOTA)[X2][dF]QWAVGH[Sta]L-NH2),uptake in PC-3 tumors on PET images,lower uptake
